Here are results for 22 compounds from patent publication US20240262822A1, “WDR5 INHIBITORS AND MODULATORS” (Vanderbilt University, priority 2021, published 2024).

Read-outs that look alike come from different tables or passages of the source. Bounds are passed on as bounds.

One test has as its target T1, WDR5 (Homo sapiens, UniProt P61964).
T1 construct: WDR5-His Tag (A23, residues 24-334) is expressed and purified in our lab; made in house
As to the kind of experiment: Time Resolved-Fluorescence Energy Transfer (TR-FRET) competition assay, displacement of 10mer-Thr-FAM probe from His-tagged WDR5. In kind it is binding. The following applies: WDR5-His tag 2 nM, 10mer-Thr-FAM 150 nM, 60 minutes at room temperature. From the text: Excess 10mer-Thr-FAM probe was utilized with His-tagged WDR5 in conjunction with a commercial anti-His antibody containing a Terbium label. The LanthaScreen™ Elite Tb-anti-HIS Antibody from ThermoFisher Scientific was used for this purpose. This Tb-anti-HIS has an excitation/emission of 340 nm and 490 nm, respectively. The 10mer-Thr-FAM probe when bound to WDR5 will undergo a FRET interaction with the Tb-anti-HIS and emit at 520 nm. […] WDR5-His Tag (A23, residues 24-334) is expressed and purified in our lab in sufficient quantities for screening. 10mer-Thr-FAM peptide is used at 150 nM. WDR5-His tag protein is used at 2 nM. A source plate is prepared using an Echo Liquid Handler, which distributes the compounds to the assay plate (white, flat-bottom; OptiPlate) in a 10-point, 5-fold dilution schemes with a top concentration of 5 μM, in a final volume of 20 μL. A final target (WDR5)/Tb-Ab concentration of 2 nM/1 nM is dispensed from appropriate stock solutions, respectively. The final DMSO concentration in each well of the assay plate is 1% or lower. The plate is covered, shielded from light, and incubated for 60 minutes at room temperature with rocking. 10mer-Thr-FAM and Anti-His terbium antibody fluorescence is then measured on a Biotek Cytation 3 at excitation wavelength of 340 nm, and emission wavelengths of 495 nm and 520 nm. Working buffer conditions contain 1× Phosphate Buffered Saline, 300 mM NaCl, 0.5 mM TCEP, 0.1% CHAPS, at pH 7.2. TR-FRET signal is plotted and IC50 and Ki values are calculated according to the formula of Wang Z. FEBS Lett (1996) 3, 245.
where […] is the concentration of the free inhibitor at 50% inhibition, [L]50 is the concentration of the free labeled ligand at 50% inhibition, [P]0 is the concentration of the free protein at 0% inhibition, Kd represents the dissociation constant of the FITC-MLL or 10mer-Thr-FAM probe for WDR5. Total fluorescence is also measured, to rule out compounds that are inherently fluorescent or able to act as quenchers in the assay. TR-FRET binding assay
For orientation: TR-FRET usually uses a lanthanide donor and a delayed reading to cut background.

Test [1] concerns MV4:11 human cancer cell lines. As to the kind of experiment: Cellular viability / anti-proliferative activity, CellTiter-Glo, 5 day protocol. It is filed as cell-based. The note with it: 5 day incubation. On the procedure: Anti-proliferative activity using MLL-harboring cell lines. MV-4-11 and K562 cells are grown in IMDM media supplemented with 10% FBS and 1% penicillin/streptomycin, Molm-13 cells are cultured in RPMI-1640 media supplemented with 10% FBS and 1% penicillin/streptomycin. Viability assays are performed by dispensing 200 cells at 7200 cells/mL into each well of an opaque 384-well plate and adding compounds at the indicated concentrations in a final volume of 32 μL and a final concentration of DMSO of 0.3% for all samples. A certain range of compound concentrations is made through a series of 2-fold dilutions starting 30 μM at the highest, total 22 dilutions. After a set incubation period, 5 day protocol, the viability of cells in each well is assessed using the CellTiter-Glo assay (Promega), read on a 96 Microplane Luminometer (Cytation 3, BioTek). Serial dilutions of each cell type are performed in all assays to generate standard curves and the final densities of cells are determined within the dynamic range of the instrument. GI50 values are calculated based on XLfit software (IDBS, Guildford, UK) with Sigmoidal Dose-Response Model. Each compound is tested in minimum of two replicates. Data are expressed as mean.
For orientation: In ATP-based viability assays light output follows the ATP content of the culture.

Setting [2] is: read-out: Ki for additional WDR5 inhibitor compounds for Inhibition of WDR5 by TR-FRET assay.
Where [3] appears, read: Homo sapiens, MV4-11, 120 h, MV4;11 cells, read-out: GI50 for additional WDR5 inhibitor compounds on cellular proliferation of MV4;11 human cancer cell lines.
[4] abbreviates: Homo sapiens, 120 h, MV4;11 cells, read-out: GI50 for additional WDR5 inhibitor compounds on cellular proliferation of MV4;11 human cancer cell lines.
Where [5] appears, read: read-out: Ki for Exemplified Compounds for Inhibition of WDR5 by TR-FRET assay.
[6] abbreviates: Homo sapiens, MV4-11, 120 h, MV4:11 cells, read-out: GI50 for representative compounds on cellular proliferation of MV4:11 human cancer cell lines.

For the compound `COc1cc(N(C)C)c2nccc(N3CCc4c(cc(Cn5ccnc5)cc4-c4cn(C)nc4C(F)(F)F)C3=O)c2c1` [Compound B-35], the Ki on WDR5 (setting [2]) was less than 0.02 nM. The GI50 in test [1] (setting [3]) was determined as 76 nM.

As to `CCc1cc(C2CCOCC2)c2nccc(N3CCc4c(cc(Cn5ccnc5)cc4-c4cn(C)nc4C(F)(F)F)C3=O)c2c1` [Compound B-36], the Ki on WDR5 (setting [2]) was less than 0.02 nM. For the same compound, the GI50 in test [1] (setting [3]) was found to be 23 nM.

In the case of `CNC(=O)c1cc(OC)cc2c(N3CCc4c(cc(Cn5ccnc5)cc4-c4cn(C)nc4C(F)(F)F)C3=O)ccnc12` [Compound B-42], the GI50 in test [1] (setting [3]) is less than 20 nM.

With `CCc1cc(N2CCN(C3COC3)C(=O)C2)c2nc(C)cc(N3CCc4c(cc(Cn5ccnc5)cc4-c4cn(C)nc4C(F)(F)F)C3=O)c2c1` [Compound B-132], on WDR5 (setting [2]), the Ki is 0.03 nM. Also, the GI50 in test [1] (setting [3]) is less than 20 nM.

For the compound `CCc1cc(C2CCOCC2)c2nc(C)cc(N3CCc4c(cc(Cn5ccnc5)cc4-c4cn(C)nc4C(F)(F)F)C3=O)c2c1` [Compound B-165], the Ki on WDR5 (setting [2]) was 0.042 nM. Moreover, in test [1] (setting [3]), the GI50 was determined as 129 nM.

Regarding `CCc1cc(C(=O)NCCN(C)C)c2nccc(N3CCc4c(cc(Cn5ccnc5)cc4-c4cn(C)nc4C(F)(F)F)C3=O)c2c1` [Compound B-166], at WDR5 (setting [2]), the Ki was 0.029 nM. The GI50 in test [1] (setting [4]) was less than 20 nM.

On to `COc1cc(N2C[C@H]3CN(C)C[C@H]3C2)c2nc(C)cc(N3CCc4c(cc(Cn5ccnc5)cc4-c4cn(C)nc4C(F)(F)F)C3=O)c2c1` [Compound B-197], for which the Ki at WDR5 (setting [2]) came out at 0.02 nM. The GI50 in test [1] (setting [3]) is less than 20 nM.

Consider `COc1cc(C(=O)Nc2cn[nH]c2)c2nc(C)cc(N3CCc4c(cc(Cn5ccnc5)cc4-c4cn(C)nc4C(F)(F)F)C3=O)c2c1` [Compound B-201], for which the Ki on WDR5 (setting [2]) is 0.023 nM. The GI50 in test [1] (setting [3]) was determined as 23 nM.

Regarding `COc1cc(C(=O)NC2CN(C(=O)C3CCOCC3)C2)c2nccc(N3CCc4c(cc(Cn5ccnc5)cc4-c4cn(C)nc4C(F)(F)F)C3=O)c2c1` [Compound B-229], the Ki on WDR5 (setting [2]) was less than 0.02 nM. Besides, the GI50 in test [1] (setting [3]) is 26 nM.

For `CCc1cc(N)c2nccc(N3CCc4c(cc(Cn5ccnc5)cc4-c4cn(C)nc4C(F)(F)F)C3=O)c2c1` [Compound B-230], in test [1] (setting [4]), the GI50 was 54 nM.

Turning to `CCc1cc(NC(C)=O)c2nccc(N3CCc4c(cc(Cn5ccnc5)cc4-c4cn(C)nc4C(F)(F)F)C3=O)c2c1` [Compound B-231], the GI50 in test [1] (setting [3]) is less than 20 nM.

Take `CCc1cc(NC(=O)CC2CN(C(=O)C3CCOCC3)C2)c2nccc(N3CCc4c(cc(Cn5ccnc5)cc4-c4cn(C)nc4C(F)(F)F)C3=O)c2c1` [Compound B-233]: the Ki on WDR5 (setting [2]) is less than 0.02 nM. Also, the GI50 in test [1] (setting [3]) turned out to be 26 nM.

For the compound `CCc1cc(C(=O)NC2CN(C(=O)c3ccncc3)C2)c2nccc(N3CCc4c(cc(Cn5ccnc5)cc4-c4cn(C)nc4C(F)(F)F)C3=O)c2c1` [Compound B-242], the Ki on WDR5 (setting [2]) is less than 0.02 nM. Moreover, the GI50 in test [1] (MV4;11 cells, read-out: GI50 for additional WDR5 inhibitor compounds on cellular proliferation of MV4;11 human cancer cell lines) came to 29 nM.

For `COc1cnc2cc(C)cc(N3CCc4c(cc(Cn5ccnc5C)cc4-c4cn(C)nc4C(F)(F)F)C3=O)c2c1` [Example 2, 2-(3-Methoxy-7-methylquinolin-5-yl)-7-((2-methyl-1H-imidazol-1-yl)methyl)-5-(1-methyl-3-(trifluoromethyl)-1H-pyrazol-4-yl)-3,4-dihydroisoquinolin-1(2H)-one], the Ki on WDR5 (setting [5]) is less than 0.02 nM. In addition, the GI50 in test [1] (setting [6]) was less than 20 nM.

As to `CCc1cc(C(=O)NC)c2nccc(N3CCc4c(cc(Cn5ccnc5C)cc4-c4cn(C)nc4C(F)(F)F)C3=O)c2c1` [Example 5, 6-Ethyl-N-methyl-4-(7-((2-methyl-1H-imidazol-1-yl)methyl)-5-(1-methyl-3-(trifluoromethyl)-1H-pyrazol-4-yl)-1-oxo-3,4-dihydroisoquinolin-2(1H)-yl)quinoline-8-carboxamide], the Ki on WDR5 (setting [5]) is less than 0.02 nM. The GI50 in test [1] (setting [6]) was less than 20 nM.

Regarding `CCc1cc(C(N)=O)c2nccc(N3CCc4c(cc(Cn5ccnc5C)cc4-c4cn(C)nc4C(F)(F)F)C3=O)c2c1` [Example 6, 6-Ethyl-4-(7-((2-methyl-11H-imidazol-1-yl)methyl)-5-(1-methyl-3-(trifluoromethyl)-1H-pyrazol-4-yl)-1-oxo-3,4-dihydroisoquinolin-2(1H)-yl)quinoline-8-carboxamide], the Ki at WDR5 (setting [5]) is less than 0.02 nM. Moreover, in test [1] (setting [6]), the GI50 is less than 20 nM.

With `CCc1cc2c(N3CCc4c(cc(Cn5ccnc5)cc4-c4cn(C)nc4C(F)(F)F)C3=O)ccnc2c(=O)[nH]1` [Example 7, 4-(7-((1H-Imidazol-1-yl)methyl)-5-(1-methyl-3-(trifluoromethyl)-1H-pyrazol-4-yl)-1-oxo-3,4-dihydroisoquinolin-2(1H)-yl)-6-ethyl-1,7-naphthyridin-8(7H)-one and 7-((1H-imidazol-1-yl)methyl)-2-(6-ethyl-8-hydroxy-1,7-naphthyridin-4-yl)-5-(1-methyl-3-(trifluoromethyl)-1H-pyrazol-4-yl)-3,4-dihydroisoquinolin-1(2H)-one mixture], on WDR5 (setting [5]), the Ki was less than 0.02 nM. Further, the GI50 in test [1] (setting [6]) amounted to 1990 nM.

Consider `CCc1cc2c(N3CCc4c(cc(Cn5ccnc5)cc4-c4cn(C)nc4C(F)(F)F)C3=O)ccnc2c(NC)n1` [Example 9, 7-((1H-Imidazol-1-yl)methyl)-2-(6-ethyl-8-(methylamino)-1,7-naphthyridin-4-yl)-5-(1-methyl-3-(trifluoromethyl)-1H-pyrazol-4-yl)-3,4-dihydroisoquinolin-1(2H)-one], for which the Ki on WDR5 (setting [5]) is less than 0.02 nM. In addition, the GI50 in test [1] (setting [6]) was 102 nM.

Consider `CCc1cc2c(N3CCc4c(cc(Cn5ccnc5C)cc4-c4cn(C)nc4C(F)(F)F)C3=O)ccnc2c(OC)n1` [Example 10, 2-(6-Ethyl-8-methoxy-1,7-naphthyridin-4-yl)-7-((2-methyl-1H-imidazol-1-yl)methyl)-5-(1-methyl-3-(trifluoromethyl)-1H-pyrazol-4-yl)-3,4-dihydroisoquinolin-1(2H)-one], for which the Ki on WDR5 (setting [5]) is less than 0.02 nM. Further, the GI50 in test [1] (setting [6]) was less than 20 nM.

Regarding `CCc1cnc2c(c1)[C@@H](N1CCc3c(cc(Cn4ccnc4)cc3-c3cn(C)nc3C(F)(F)F)C1=O)CCO2` [Example 11, (S)-7-((1H-Imidazol-1-yl)methyl)-2-(6-ethyl-3,4-dihydro-2H-pyrano[2,3-b]pyridin-4-yl)-5-(1-methyl-3-(trifluoromethyl)-1H-pyrazol-4-yl)-3,4-dihydroisoquinolin-1(2H)-one], the Ki at WDR5 (setting [5]) is less than 0.02 nM. The GI50 in test [1] (setting [6]) was less than 20 nM.

In the case of `COc1cc2c(N3CCc4c(cc(Cn5ccnc5)cc4-c4cn(C)nc4C(F)(F)F)C3=O)ccnc2c(OC)n1` [Example 12, 7-((1H-Imidazol-1-yl)methyl)-2-(6,8-dimethoxy-1,7-naphthyridin-4-yl)-5-(1-methyl-3-(trifluoromethyl)-1H-pyrazol-4-yl)-3,4-dihydroisoquinolin-1(2H)-one], at WDR5 (setting [5]), the Ki is less than 0.02 nM. For the same compound, the GI50 in test [1] (setting [6]) came out at 42 nM.

In the case of `CCc1cc(OC)c2nncc(N3CCc4c(cc(Cn5ccnc5)cc4-c4cn(C)nc4C(F)(F)F)C3=O)c2c1` [Example 13, 7-((1H-Imidazol-1-yl)methyl)-2-(6-ethyl-8-methoxycinnolin-4-yl)-5-(1-methyl-3-(trifluoromethyl)-1H-pyrazol-4-yl)-3,4-dihydroisoquinolin-1(2H)-one], the Ki on WDR5 (setting [5]) was less than 0.02 nM. The GI50 in test [1] (setting [6]) was less than 20 nM.

One may read the Ki as a measure of affinity in units of concentration, obtained from inhibition or displacement.
